Assay results reported in patent US8980226B2, “Aerosolized fosfomycin/aminoglycoside combination for the treatment of bacterial respiratory infections” (Gilead Sciences, Inc., priority 2004, dated 2015).
Like-named read-outs stand apart in the source and are kept apart here.

Legend:
Assay type in all cases: cell-based
B. cepacia = assay: MIC, agar-plate dilution method
Procedure: (§1) “Minimal inhibitory concentration (MIC)” means the lowest concentration of antibiotic (s) that prevents visible growth after incubation for 18-20 hours at 35° C.
(§2) The efficacy of antibiotics and antibiotic combinations against Gram-positive and Gram-negative bacteria representative of species that cause respiratory infections in patients with cystic fibrosis, bronchiectasis, sinusitis, and ventilator-associated pneumonia were evaluated in MIC assays. P. aeruginosa strains were isolated from lung sputum samples collected from cystic fibrosis patients, blood cultures, respiratory tract infections, and skin or soft tissue infections. E. coli, H. influenzae, B. cepacia, S. maltophilia, K. pneumoniae, M. catarrhalis, S. aureus, S. pneumoniae, S. pyogenes, and E. faecalis were isolated from respiratory tract infections. E. coli ATCC 25922, P. aeruginosa ATCC 27853, and S. aureus ATCC 29213 were used as quality control stains.
(§3) The MICs of fosfomycin alone, tobramycin alone, or combinations of fosfomycin plus tobramycin were determined by the agar-plate dilution method according to NCCLS guidelines (NCCLS, 2003). Bacterial strains were streaked onto Trypic Soy Agar plates (PML Microbiologicals, Wilsonville, Oreg.) containing 5% defibrinated sheep blood (hereafter referred to as blood agar plates) and incubated overnight at 35° C. Two to three bacterial colonies from the overnight cultures were inoculated into 3 mL of sterile normal saline, vortexed briefly, and adjusted to a 0.5 McFarland standard (NCCLS, 2003). The bacterial suspension was diluted 1:40 in sterile normal saline and served as the inoculum. Mueller-Hinton agar plates (hereafter referred to as MHA) were prepared by combining 16 g of agarose (Becton-Dickinson, Sparks, Md.), 22 g of Mueller-Hinton broth powder (Becton-Dickinson, Sparks, Md.), and adjusted to 1 L with distilled water. The agar was sterilized by autoclaving, cooled to 55° C., and supplemented with 25 μg/mL of glucose-6-phosphate (Sigma-Aldrich, St. Louis, Mo.). Twenty-five mL of cooled agar was aliquoted into 50 mL conical tubes and supplemented with appropriate concentrations of antibiotic to achieve concentrations ranging from 0.06 μg/mL to 512 μg/mL. After gently mixing the agar and antibiotic, the suspension was poured into sterile 100 mm petri dishes and allowed to solidify at room temperature. The antibiotic agar plates were inoculated with approximately 2×10^4 CFU/spot with a 48-point inoculator (Sigma-Aldrich, St. Louis, Mo.). The MIC was defined as the lowest concentration of antibiotic (s) that prevented visible growth after incubation for 18-20 hours at 35° C. The efficacy of a particular antibiotic or antibiotic combination on large populations of P. aeruginosa was determined by calculating the MIC50 and MIC90 values. The MIC50 value was defined as the concentration of antibiotic(s) which inhibited 50% of the P. aeruginosa strains. The MIC90 value was defined as the concentration of antibiotic(s) which inhibited 90% of the P. aeruginosa strains (Wiedemann and Grimm, 1996).

E. coli = assay: MIC, agar-plate dilution method; details: Escherichia coli
Procedure: as §1, §2, §3

E. faecalis = assay: MIC, agar-plate dilution method; details: Enterococcus faecalis
Procedure: as §1, §2, §3

H. influenzae = assay: MIC, agar-plate dilution method
Procedure: as §1, §2, §3

K. pneumoniae = assay: MIC, agar-plate dilution method
Procedure: as §1, §2, §3

M. catarrhalis = assay: MIC, agar-plate dilution method
Procedure: as §1, §2, §3

P. aeruginosa [1] = assay: MIC, agar-plate dilution method; details: Pseudomonas aeruginosa
Procedure: as §1, §2, §3

S. aureus = assay: MIC, agar-plate dilution method
Procedure: as §1, §2, §3

S. maltophilia = assay: MIC, agar-plate dilution method; details: Stenotrophomonas maltophilia
Procedure: as §1, §2, §3

S. pneumoniae = assay: MIC, agar-plate dilution method; details: Streptococcus pneumoniae
Procedure: as §1, §2, §3

S. pyogenes = assay: MIC, agar-plate dilution method; details: Streptococcus pyogenes
Procedure: as §1, §2, §3

P. aeruginosa [2] = details: for Frequency of Resistance: plates with 128 μg/mL fosfomycin, 8 μg/mL tobramycin, or both
Procedure: The frequency of single-step spontaneous resistance mutation was determined for 5 susceptible P. aeruginosa strains. The bacterial inoculum was prepared by inoculating 5 mL of CAMHB with 2-3 bacterial colonies and incubating at 35° C. in a shaking water bath (250 rpm) for 18 h. A 1:20 dilution of the overnight culture was made into 50 mL of fresh CAMHB in a 125 ml erlenmyer flask and incubated at 35° C. in a shaking waterbath (250 rpm) for 8 hours. Cultures were centrifuged at 2,500 rpm, room temperature, for 20 min. The supernatant was decanted off and the cell pellet from the 50 mL of culture resuspended in 500 μl-1000 μl CAMHB. The CFU/mL in the bacterial suspension was determined by making 10-fold serial dilutions in sterile normal saline, and spreading 100 μl aliquots on blood agar plates. Culture plates were incubated at 35° C. for 18-24 hours and the number of colonies enumerated manually. One hundred microliters of bacterial cell suspension (approximately 10^9 CFU) was spread onto MHA plates containing 128 μg/mL of fosfomycin, 8 μg/mL of tobramycin, or 128 μg/mL of fosfomycin plus 8 μg/mL of tobramycin. The culture plates were incubated at 35° C. for 48-72 hours and the number of colonies on each plate was enumerated manually. The frequency of resistance was calculated by dividing the number of bacteria growing at the defined antibiotic concentration by the number of bacteria in the original inoculum. Representative mutants were evaluated for changes in MIC to fosfomycin alone, tobramycin alone, and fosfomycin plus tobramycin combinations as described in Example 5, Method A.

[3] = Haemophilus influenzae, H. influenzae COR-042, read-out: MIC
[4] = Klebsiella pneumoniae, K. pneumoniae COR-042, read-out: MIC
[5] = Moraxella catarrhalis, M. catarrhalis COR-109, read-out: MIC
[6] = P. aeruginosa COR-003, read-out: MIC
[7] = P. aeruginosa COR-021, read-out: MIC
[8] = Staphylococcus aureus, S. aureus COR-051 (MSSA), read-out: MIC
[9] = Staphylococcus aureus, S. aureus COR-055 (MRSA), read-out: MIC
[10] = S. maltophilia COR-083, read-out: MIC
[11] = mutants of P. aeruginosa ATCC 27853
[12] = mutants of P. aeruginosa COR-002
[13] = mutants of P. aeruginosa COR-003
[14] = mutants of P. aeruginosa COR-013
[15] = mutants of P. aeruginosa COR-014

Row | Compound | MIC (E. coli; E. coli COR-032) [µg/mL] | MIC (E. coli; E. coli COR-039) [µg/mL] | MIC (E. coli; E. coli COR-040) [µg/mL] | MIC (E. faecalis; E. faecalis COR-099) [µg/mL] | MIC (E. faecalis; E. faecalis COR-103) [µg/mL] | MIC (H. influenzae; [3]) [µg/mL] | MIC (K. pneumoniae; [4]) [µg/mL] | MIC (M. catarrhalis; M. catarrhalis COR-113) [µg/mL] | MIC (M. catarrhalis; [5]) [µg/mL] | MIC (P. aeruginosa [1]; [6]) [µg/mL] | MIC (P. aeruginosa [1]; [7]) [µg/mL] | MIC (S. aureus; [8]) [µg/mL] | MIC (S. aureus; [9]) [µg/mL] | MIC (S. maltophilia) [µg/mL] | MIC (S. maltophilia; [10]) [µg/mL] | MIC (S. pneumoniae; S. pneumoniae COR-061) [µg/mL] | MIC (S. pneumoniae; S. pneumoniae COR-068) [µg/mL] | MIC (S. pyogenes; S. pyogenes COR-104) [µg/mL] | MIC (S. pyogenes; S. pyogenes COR-105) [µg/mL] | Frequency of Resistance (P. aeruginosa [2]; P. aeruginosa ATCC 27853) | other results
1 | NC[C@H]1O[C@H](O[C@H]2[C@H](O)[C@@H](O[C@H]3O[C@H](CO)[C@@H](O)[C@H](N)[C@H]3O)[C@H](N)C[C@@H]2N)[C@H](N)C[C@@H]1O [Tobramycin] | 0.5 | 0.25 | 32 | 512 | 8 | 0.5 | 0.5 | 8 | 8 | 0.5 | 64 | 0.25 | 0.25 | 128 | 512 | 64 | 16 | 32 | 64 | 3.4 × 10^−6 | MIC (B. cepacia; Burkholderia cepacia, B. cepacia COR-090): 128 µg/mL; MIC (B. cepacia; Burkholderia cepacia, B. cepacia COR-098, read-out: MIC): 64 µg/mL; MIC (H. influenzae; H. influenzae COR-049): 0.5 µg/mL; MIC (K. pneumoniae; K. pneumoniae COR-049): 0.5 µg/mL; MIC (P. aeruginosa [1]; P. aeruginosa COR-009, read-out: MIC): 2050 µg/mL; MIC (P. aeruginosa [1]; P. aeruginosa COR-027, read-out: MIC): 0.5 µg/mL; MIC (S. aureus; Staphylococcus aureus, S. aureus COR-059): 128 µg/mL; MIC (S. aureus; Staphylococcus aureus, S. aureus COR-060 (GISA), read-out: MIC): 64 µg/mL; MIC (S. maltophilia; S. maltophilia COR-082, read-out: MIC): 4 µg/mL; Frequency of Resistance (P. aeruginosa [2]; P. aeruginosa COR-002): 6.7 × 10^−6; Frequency of Resistance (P. aeruginosa [2]; P. aeruginosa COR-003): 3.2 × 10^−6; Frequency of Resistance (P. aeruginosa [2]; P. aeruginosa COR-013): 2.6 × 10^−6; Frequency of Resistance (P. aeruginosa [2]; P. aeruginosa COR-014): 5.0 × 10^−6; Fold Increase in MIC after a single exposure to antibiotic (P. aeruginosa [2]; [11]): 1; Fold Increase in MIC after a single exposure to antibiotic (P. aeruginosa [2]; [12]): 1; Fold Increase in MIC after a single exposure to antibiotic (P. aeruginosa [2]; [13]): 2; Fold Increase in MIC after a single exposure to antibiotic (P. aeruginosa [2]; [14]): 8; Fold Increase in MIC after a single exposure to antibiotic (P. aeruginosa [2]; [15]): 16; increase in MIC of mutants after a single exposure (P. aeruginosa [2]; range over the P. aeruginosa mutants): 2-16 fold
2 | C[C@@H]1O[C@@H]1P(=O)(O)O [Fosfomycin] | 1 | 64 | 1 | 32 | 32 | 8 | 8 | 4 | 4 | 16 | 8 | 1 | 4 | 128 | 64 | 32 | 8 | 64 | 16 | 4.1 × 10^−5 | MIC (B. cepacia; B. cepacia COR-098): ≧2048 μg/mL; MIC (B. cepacia; Burkholderia cepacia, B. cepacia COR-090, read-out: MIC): ≥ 2050 µg/mL; MIC (H. influenzae; Haemophilus influenzae, H. influenzae COR-049): 128 µg/mL; MIC (K. pneumoniae; Klebsiella pneumoniae, K. pneumoniae COR-049): 128 µg/mL; MIC (P. aeruginosa [1]; P. aeruginosa COR-009): 1020 µg/mL; MIC (P. aeruginosa [1]; P. aeruginosa COR-027): 128 µg/mL; MIC (S. aureus; S. aureus COR-060 (GISA)): 2 µg/mL; MIC (S. aureus; Staphylococcus aureus, S. aureus COR-059, read-out: MIC): 2 µg/mL; MIC (S. maltophilia; S. maltophilia COR-087, read-out: MIC): ≥ 512 µg/mL; Frequency of Resistance (P. aeruginosa [2]; P. aeruginosa COR-002): 1.4 × 10^−3; Frequency of Resistance (P. aeruginosa [2]; P. aeruginosa COR-003): 5.5 × 10^−4; Frequency of Resistance (P. aeruginosa [2]; P. aeruginosa COR-013): 6.4 × 10^−3; Frequency of Resistance (P. aeruginosa [2]; P. aeruginosa COR-014): 1.5 × 10^−5; Fold Increase in MIC after a single exposure to antibiotic (P. aeruginosa [2]; [11]): 128; Fold Increase in MIC after a single exposure to antibiotic (P. aeruginosa [2]; [12]): >256; Fold Increase in MIC after a single exposure to antibiotic (P. aeruginosa [2]; [13]): >256; Fold Increase in MIC after a single exposure to antibiotic (P. aeruginosa [2]; [14]): >64; Fold Increase in MIC after a single exposure to antibiotic (P. aeruginosa [2]; [15]): >512
